Assay results: paper PMC3746001 (ACS chemical biology, 2013)

What was measured:
[1] = molecular target: T1, Dpo1 (Saccharolobus solfataricus, UniProt P26811); assay: Fluorescence-based polymerase assay, Dpo1; type: biochemical, S. solfataricus
T1 sequence (P26811 1-882): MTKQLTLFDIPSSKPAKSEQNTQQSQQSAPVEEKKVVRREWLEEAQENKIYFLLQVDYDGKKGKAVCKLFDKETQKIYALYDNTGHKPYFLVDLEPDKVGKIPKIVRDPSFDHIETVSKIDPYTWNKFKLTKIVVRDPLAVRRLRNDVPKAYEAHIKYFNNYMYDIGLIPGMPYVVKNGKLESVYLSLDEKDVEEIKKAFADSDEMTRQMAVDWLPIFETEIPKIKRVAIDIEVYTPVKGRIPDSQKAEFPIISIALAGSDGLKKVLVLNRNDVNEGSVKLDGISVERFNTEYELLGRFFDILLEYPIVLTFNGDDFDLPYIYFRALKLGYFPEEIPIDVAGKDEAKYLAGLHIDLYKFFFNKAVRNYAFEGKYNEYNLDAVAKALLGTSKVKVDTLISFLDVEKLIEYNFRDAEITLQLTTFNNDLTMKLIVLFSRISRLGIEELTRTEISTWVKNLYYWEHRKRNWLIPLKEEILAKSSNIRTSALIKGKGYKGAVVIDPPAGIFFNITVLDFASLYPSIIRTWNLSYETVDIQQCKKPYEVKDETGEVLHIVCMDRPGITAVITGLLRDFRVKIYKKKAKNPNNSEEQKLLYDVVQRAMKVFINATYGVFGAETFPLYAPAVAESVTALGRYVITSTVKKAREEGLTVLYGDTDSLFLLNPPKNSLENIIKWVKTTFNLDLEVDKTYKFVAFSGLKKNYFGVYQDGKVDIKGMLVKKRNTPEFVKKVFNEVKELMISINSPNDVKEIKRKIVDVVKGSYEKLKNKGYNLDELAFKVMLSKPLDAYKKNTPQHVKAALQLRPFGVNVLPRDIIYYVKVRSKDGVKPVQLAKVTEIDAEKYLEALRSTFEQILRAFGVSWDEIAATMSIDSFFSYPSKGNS

[2] = molecular target: T2, hetero-dimeric hpol γ (Homo sapiens, UniProt P54098); assay: Fluorescence-based polymerase assay, hpol γ; type: biochemical
T2 sequence (P54098 1-1239): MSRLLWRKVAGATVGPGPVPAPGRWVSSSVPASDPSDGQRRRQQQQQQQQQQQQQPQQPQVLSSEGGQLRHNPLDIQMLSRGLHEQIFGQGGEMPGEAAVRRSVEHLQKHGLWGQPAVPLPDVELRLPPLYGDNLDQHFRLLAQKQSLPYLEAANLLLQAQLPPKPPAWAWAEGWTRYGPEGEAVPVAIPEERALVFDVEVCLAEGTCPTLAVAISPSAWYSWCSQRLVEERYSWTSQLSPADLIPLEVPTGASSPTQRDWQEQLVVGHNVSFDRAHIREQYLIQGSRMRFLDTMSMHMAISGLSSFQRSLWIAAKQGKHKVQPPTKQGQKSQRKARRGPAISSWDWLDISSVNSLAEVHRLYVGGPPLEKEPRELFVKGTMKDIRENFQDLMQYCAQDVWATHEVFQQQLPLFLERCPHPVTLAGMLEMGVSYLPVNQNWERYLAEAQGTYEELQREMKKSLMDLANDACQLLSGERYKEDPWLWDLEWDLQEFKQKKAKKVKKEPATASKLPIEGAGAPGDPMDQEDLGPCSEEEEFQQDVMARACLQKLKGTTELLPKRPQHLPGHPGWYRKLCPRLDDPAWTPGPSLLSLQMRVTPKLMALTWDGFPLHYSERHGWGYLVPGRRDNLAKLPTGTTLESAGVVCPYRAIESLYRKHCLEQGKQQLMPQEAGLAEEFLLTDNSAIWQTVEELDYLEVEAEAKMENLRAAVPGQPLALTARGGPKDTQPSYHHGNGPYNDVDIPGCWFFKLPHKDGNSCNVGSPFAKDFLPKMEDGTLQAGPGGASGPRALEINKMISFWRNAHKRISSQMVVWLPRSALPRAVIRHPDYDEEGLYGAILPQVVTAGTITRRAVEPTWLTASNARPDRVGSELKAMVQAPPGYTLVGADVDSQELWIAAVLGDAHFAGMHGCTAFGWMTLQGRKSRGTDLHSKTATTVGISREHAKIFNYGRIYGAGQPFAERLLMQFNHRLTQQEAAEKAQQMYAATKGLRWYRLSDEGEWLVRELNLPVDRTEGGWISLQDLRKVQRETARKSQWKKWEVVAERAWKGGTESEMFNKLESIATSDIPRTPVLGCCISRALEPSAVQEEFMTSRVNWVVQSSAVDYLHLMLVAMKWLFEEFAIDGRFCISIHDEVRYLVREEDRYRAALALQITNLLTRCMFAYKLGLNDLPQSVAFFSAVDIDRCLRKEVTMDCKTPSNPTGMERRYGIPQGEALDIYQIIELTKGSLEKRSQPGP
T2 sequence (Q9UHN1 26-485 partner limits assumed): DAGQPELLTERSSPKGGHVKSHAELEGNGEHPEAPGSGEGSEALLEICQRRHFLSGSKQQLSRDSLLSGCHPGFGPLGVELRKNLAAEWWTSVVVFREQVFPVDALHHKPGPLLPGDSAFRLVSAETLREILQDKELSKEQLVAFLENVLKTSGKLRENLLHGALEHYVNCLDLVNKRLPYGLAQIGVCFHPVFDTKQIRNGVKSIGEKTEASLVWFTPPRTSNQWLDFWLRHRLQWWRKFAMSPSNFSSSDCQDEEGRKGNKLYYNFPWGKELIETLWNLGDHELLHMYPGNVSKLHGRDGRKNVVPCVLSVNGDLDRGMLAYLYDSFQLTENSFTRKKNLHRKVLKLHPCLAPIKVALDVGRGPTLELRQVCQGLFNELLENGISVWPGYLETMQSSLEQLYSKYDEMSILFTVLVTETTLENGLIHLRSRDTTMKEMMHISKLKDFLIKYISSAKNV

[3] = molecular target: T3, Dpo4 (Saccharolobus solfataricus, UniProt Q97W02); assay: Fluorescence-based polymerase assay, Dpo4; type: biochemical, Sulfolobus solfataricus
T3 sequence (Q97W02 1-352): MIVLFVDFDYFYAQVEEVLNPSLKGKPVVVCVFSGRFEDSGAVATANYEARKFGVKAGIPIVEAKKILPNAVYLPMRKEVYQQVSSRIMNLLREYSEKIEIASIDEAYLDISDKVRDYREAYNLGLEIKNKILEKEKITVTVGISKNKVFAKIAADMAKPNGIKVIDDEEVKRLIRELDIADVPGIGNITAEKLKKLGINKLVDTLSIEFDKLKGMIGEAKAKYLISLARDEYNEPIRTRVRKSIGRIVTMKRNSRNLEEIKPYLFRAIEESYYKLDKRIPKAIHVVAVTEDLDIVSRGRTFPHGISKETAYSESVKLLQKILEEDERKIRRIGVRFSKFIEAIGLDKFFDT

O=C1NC(=S)NC(=O)C1=Cc1cn(C(=O)c2ccccc2Br)c2ccc(Cl)cc12 [ITBA-12, 5-((1-(2-bromobenzoyl)-5-chloro-1H-indol-3-yl)methylene)-2-thioxodihydropyrimidine-4,6(1H,5H)-dione]
IC50 [1]: ~80 µM | IC50 [2]: 49 ± 6 µM | IC50 [3]: ~80 µM
